Measured values published in article PMC11768359, “2-Aminothiophene Derivatives—New Drug Candidates Against Leishmaniasis: Drug Design, Synthesis, Pharmacomodulation, and Antileishmanial Activity” (Pharmaceuticals, 2025).
Where “and” joins values, the source holds several entries; their conditions need not be identical. Identical values can stand only once. Like-named read-outs stand apart in the source and are kept apart here.

Columns and labels:
[1] = system: promastigotes of L. amazonensis; test: Growth inhibition of promastigote forms of L. amazonensis (MTT); format: cell-based, Leishmania amazonensis; conditions: 72 h, 26 °C
Description: (§1) The in vitro tests utilized Leishmania amazonensis parasites (IFLA/BR/67/PH8). These leishmania cell lines were obtained from Oswaldo Cruz Foundation (FIOCRUZ)/Brazil. The promastigote forms were cultivated in Schneider’s insect medium at 26 °C in a biological oxygen demand (BOD) incubator. Schneider’s insect medium was supplemented with 20% fetal bovine serum (FBS) and 1% penicillin (100 U/mL) and streptomycin (µg/mL) (complete Schneider). Next, we differentiated them from promastigote forms by changing the conditions to Schneider’s insect medium supplemented with 5% FBS, pH 4.6, and a temperature of 32 °C to obtain axenic amastigote forms of L. amazonensis. Meanwhile, RAW 264.7 macrophages were cultured in […] cell culture flasks using DMEM medium supplemented with 10% FBS, 1% penicillin 100 U/mL, and 100 μg/mL streptomycin (complete DMEM) and incubated at 37 °C and 5% CO2.
(§2) Parasite growth inhibition was evaluated using the methodology described by Rodrigues et al. (2015). Cultures of logarithmically growing promastigote and axenic amastigote forms (1 × 10^6 parasites/mL) were incubated in 96-well plates containing 100 µL of supplemented Schneider’s medium in triplicate. Serial concentrations of 2-amino-thiophene and 2-amino-selenophene derivatives (10.00–0.156 μM) and the reference drugs meglumine antimoniate (500–40,000 μg/mL), amphoterecinB (0.1–2 μM), and pentamidine (3.12–100 µM) were added. BNP was used as a negative control. The cultures were incubated in a biological oxygen demand oven (model Eletrolab EL202, São Paulo, Brazil) at 26 °C for promastigotes and 32 °C for axenic amastigotes for 72 h. Then, 10 μL of MTT (5 mg/mL) was added to each well to colorimetrically evaluate growth inhibition. The plate was subsequently incubated for a further 4 h, followed by adding 50 μL of 10% sodium dodecyl sulfate solution for […] before the optical density of the culture was read on a microplate spectrophotometer reader. The reading was taken at the test and reference wavelengths of 540 and 620 nm using a microplate spectrophotometer. The negative control consisted of 0.2% […] with BNP, considered to be 100% viable.

[2] = system: axenic amastigotes of L. amazonensis; test: Growth inhibition of axenic amastigote forms of L. amazonensis (MTT); format: cell-based, Leishmania amazonensis; conditions: Leishmania amazonensis, 72 h, 32 °C
Description: as §1, §2

[3] = Cytotoxicity in macrophages (MTT); format: cell-based; conditions: mouse, RAW 264.7 macrophages
Description: as §1
First, 100 μL DMEM medium complete with 1 × 10^6 macrophages (RAW 264.7) was added to each well of a 96-well plate. RAW 264.7 macrophages were obtain from ATCC: code TIB-71^TM. The plate was placed in an incubator (37 °C, 5% CO2) (Sanyo, model COM-15A, Sanyo Electric Co., Osaka, Japan) for 4 h to promote cell adhesion. After this period, two washes were conducted with previously heated DMEM medium (37 °C) to remove non-adhered cells. 2-amino-thiophene and 2-amino-selenophene derivatives were added to wells at serial concentrations of 400 to 25 µM and then incubated for 48 h. Next, 10 μL of MTT at a […] of 5 mg/mL were added to each well and incubated for 4 h. The plate was then shaken for 30 min and read at the test and reference wavelengths of 550 and 620 nm, respectively, in a plate reader. DMEM medium supplemented with 0.5% DMSO was used as a negative control and considered as 100% macrophage viability. The selectivity index for each treatment was calculated as the ratio between the concentration of cytotoxicity of RAW 264.7 macrophages (CC50) and the 50% inhibitory concentration (IC50) or effective concentration (EC50), as measured for the different evolutionary forms of L. amazonensis.

[4] = system: promastigotes of L. amazonensis; conditions: cited from earlier work
[5] = system: axenic amastigotes of L. amazonensis; conditions: cited from earlier work
RAW 264.7 macrophages = conditions: previously published; cited from earlier work
[6] = L. amazonensis, read-out: IC50 against promastigotes
[7] = L. amazonensis, read-out: IC50 against axenic amastigotes
[8] = L. amazonensis promastigotes, previously published, read-out: IC50 Promastigotes
[9] = L. amazonensis axenic amastigotes, previously published, read-out: IC50 Amastigotes
[10] = L. amazonensis promastigotes, previously published
[11] = L. amazonensis axenic amastigotes, previously published

`CCC1CCc2c(sc(N)c2C#N)C1` (stereo not shown) [Compound 14] showed an IC50 ([1]; Leishmania amazonensis) greater than 10 µM and an IC50 [2] greater than 10 µM.

With `NC(=O)c1c(N)sc2c1CCCCCC2` [Compound 8] the IC50 [1] was greater than 10 µM, the IC50 ([1]; Leishmania amazonensis) was no less than 10 µM and the IC50 [2] was greater than 10 µM.

Compound `Cc1cccc2c(/C=N/c3[se]c4c(c3C#N)CCCC4)c[nH]c12` [Compound 36] has a CC50 at 48 h [3] of 186 µM, an IC50 [1] of 2.92 µM and an IC50 ([1]; Leishmania amazonensis) of less than 3.5 µM.

For `N#Cc1c(/N=C/c2c[nH]c3cccc(Br)c23)sc2c1CCCCCC2` [Compound 42, reference compound], the IC50 [4, 6] is listed as 2.9 µM and 2.97 µM and the IC50 [5, 7] is listed as 1.7 µM and 1.71 µM.

For `N#Cc1c(/N=C/c2c[nH]c3ccc(Br)cc23)sc2c1CCNC2` [Compound 30], the IC50 [4, 8] is given as greater than 10 µM and the IC50 [5, 9] is given as greater than 10 µM.

`CCOC(=O)c1c(N)sc2c1CCN(C(=O)OC(C)(C)C)C2` [Compound 21] showed a CC50 at 48 h [3] of 221 µM, an IC50 ([1]; Leishmania amazonensis) of 3.1 µM and an IC50 [2] of 2.9 µM.

Compound `N#Cc1c(N)sc2c1CCC2` [Compound 4] has an IC50 ([1]; Leishmania amazonensis) greater than 10 µM and an IC50 [2] greater than 10 µM.

In the case of `CC(C)(C)OC(=O)N1CCc2c(sc(N)c2C(N)=O)C1` [Compound 19], the IC50 [4, 6] is given as 2.1 µM and 2.16 µM, the CC50 at 48 h [3] is given as 310 µM and the IC50 ([1]; Leishmania amazonensis) is given as 9.35 µM. The IC50 [5, 7] was 0.9 µM and the IC50 [2] was greater than 10 µM.

In the case of `N#Cc1c(/N=C/c2c[nH]c3ccc(Br)cc23)sc2c1CCCCCCCCCC2` [Compound 26], the “IC50 Promastigotes” value [4, 10] is given as “inactive against the two evolutionary forms”, the IC50 [4, 8] is given as greater than 10 µM and the “IC50 Amastigotes” value [5, 11] is given as “inactive against the two evolutionary forms”. For the same compound, the IC50 [5, 9] was greater than 10 µM.

In the case of `N#Cc1c(/N=C/c2c[nH]c3ccc(Br)cc23)sc2c1CCCCCC2` [Compound 8CN83], the IC50 [4, 8] is listed as 4.7 µM and 4.75 µM, the IC50 [5, 9] is listed as 3.8 µM and the CC50 (RAW 264.7 macrophages) is listed as greater than 100 µM.

In the case of `Cc1ccc2[nH]cc(/C=N/c3sc4c(c3C#N)CCCC4)c2c1` [TN6-1, reference compound], the IC50 ([4]; L. amazonensis promastigotes, sensitive strain, read-out: IC50 anti-promastigote) is given as 7.2 µM.

For `N#Cc1ccc2[nH]cc(/C=N/c3[se]c4c(c3C#N)CCCC4)c2c1` [Compound 33], the CC50 at 48 h [3] was 203 µM and the IC50 ([1]; Leishmania amazonensis) was 9.32 µM.

In the case of `CC1CCc2c(sc(N)c2C#N)C1` (stereo not shown) [Compound 13], the IC50 ([1]; Leishmania amazonensis) is reported as greater than 10 µM and the IC50 [2] is reported as greater than 10 µM.

`N#Cc1c(/N=C/c2c[nH]c3ccc(Br)cc23)[se]c2c1CCCC2` [Compound 38] showed a CC50 at 48 h [3] of 239 µM, an IC50 [1] of 3.49 µM and an IC50 ([1]; Leishmania amazonensis) of less than 3.5 µM.

Compound `CCCC1CCc2c(sc(/N=C/c3c[nH]c4ccc(Br)cc34)c2C#N)C1` (stereo not shown) [Compound 28] has an IC50 [1] of 8.12 µM, an IC50 ([1]; Leishmania amazonensis) of less than 10 µM and an IC50 [2] greater than 10 µM.

Work on `N#Cc1c(N)sc2c1CCNC2` [Compound 23] yielded an IC50 ([1]; Leishmania amazonensis) greater than 10 µM and an IC50 [2] greater than 10 µM.

`Cc1cc(C#N)c(/N=C/c2c[nH]c3ccc(Br)cc23)s1` [Compound 24] gave an IC50 ([1]; Leishmania amazonensis) greater than 10 µM and an IC50 [2] greater than 10 µM.

For `Cc1cc(C#N)c(N)s1` [Compound 1], the IC50 ([1]; Leishmania amazonensis) was greater than 10 µM and the IC50 [2] was greater than 10 µM.

For `N#Cc1c(N)sc2c1CCCC2` [Compound 5], the IC50 [4, 8] is listed as greater than 10 µM.

Work on `CCC1CCc2c(sc(/N=C/c3c[nH]c4ccc(Br)cc34)c2C#N)C1` (stereo not shown) [Compound 27] yielded an IC50 ([1]; Leishmania amazonensis) greater than 10 µM and an IC50 [2] greater than 10 µM.

In the case of `N#Cc1c(/N=C/c2c[nH]c3ccccc23)[se]c2c1CCCC2` [Compound 32], the “IC50 Promastigotes” value [1] is reported as “not active up to the highest concentration evaluated” and the IC50 ([1]; Leishmania amazonensis) is reported as greater than 10 µM.

In the case of `N#Cc1c(/N=C/c2c[nH]c3ccccc23)sc2c1CCCCC2` [SB-44, reference compound], the IC50 [4, 8] is listed as 7.3 µM and 7.37 µM, the IC50 ([5]; L. amazonensis amastigotes, previously published, read-out: IC50 Amastigotes) is listed as 15.8 µM and the EC50 ([5]; L. amazonensis amastigotes, read-out: EC50 against amastigotes) is listed as 15.8 µM.

For `N#Cc1c(N)sc2c1CCN(Cc1ccccc1)C2` [Compound 18], the “IC50 Promastigotes” value [1] was “inactive compound”, the IC50 ([1]; Leishmania amazonensis) was greater than 10 µM and the IC50 [2] was greater than 10 µM.

In the case of `N#Cc1c(/N=C/c2c[nH]c3ccc(Br)cc23)sc2c1CCC2` [Compound 25], the “IC50 Promastigotes” value [4, 10] is given as “inactive against the two evolutionary forms”, the IC50 [4, 8] is given as greater than 10 µM and the “IC50 Amastigotes” value [5, 11] is given as “inactive against the two evolutionary forms”. The IC50 [5, 9] was greater than 10 µM.
